# Results published in ChEMBL document CHEMBL1201862, “PubChem BioAssay data set” (2004).
#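 Dose response: 5 concentrations. Exposure: 48 h. Format: 96-well plates. Endpoint: linear interpolation; highest concentration if not reached. GI50: concentration for 50% inhibition of growth.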 Activity calls are given as the source filed them. Cut-off read from the data, not from the text of the source: active = GI50 up to about 1.1 µM and inactive = higher.
# Tests used:
# Assay in all cases: NCI tumour cell line growth inhibition, 48 h
# [1] = tested on: 786-0
# [2] = tested on: A498
# [3] = tested on: A549
# [4] = tested on: ACHN
# [5] = tested on: BT-549
# [6] = tested on: CAKI-1
# [7] = tested on: COLO 205
# [8] = tested on: DU-145
# [9] = tested on: EKVX
# [10] = tested on: HCC 2998
# [11] = tested on: HCT-116
# [12] = tested on: HCT-15
# [13] = tested on: HL-60
# [14] = tested on: HOP-62
# [15] = tested on: HOP-92
# [16] = tested on: HT-29
# [17] = tested on: IGROV-1
# [18] = tested on: KM12
# [19] = tested on: LOX IMVI
# [20] = tested on: M14
# [21] = tested on: MCF7
# [22] = tested on: MDA-MB-231
# [23] = tested on: MDA-MB-435
# [24] = tested on: MDA-N
# [25] = tested on: MOLT-4
# [26] = tested on: NCI-H226
# [27] = tested on: NCI-H23
# [28] = tested on: NCI-H460
# [29] = tested on: NCI/ADR-RES
# [30] = tested on: OVCAR-3
# [31] = tested on: OVCAR-4
# [32] = tested on: OVCAR-5
# [33] = tested on: OVCAR-8
# [34] = tested on: RXF 393
# [35] = tested on: SF-268
# [36] = tested on: SF-295
# [37] = tested on: SF-539
# [38] = tested on: SK-MEL-28
# [39] = tested on: SK-MEL-2
# [40] = tested on: SK-MEL-5
# [41] = tested on: SK-OV-3
# [42] = tested on: SN12C
# [43] = tested on: SNB-19
# [44] = tested on: SNB-75
# [45] = tested on: SW-620
# [46] = tested on: T47D
# [47] = tested on: TK-10
# [48] = tested on: U-251
# [49] = tested on: UACC-257
# [50] = tested on: UACC-62
# [51] = tested on: UO-31
smiles,measurement,setting,value
CC(C)[C@H](C)/C=C/[C@@H](C)C1CC[C@H]2[C@@]34C=C[C@]5(C[C@@H](O)CC[C@]5(C)[C@H]3CC[C@]12C)OO4 (stereo partly specified),GI50,[1],20.4 µM (inactive)
same,GI50,[2],25.8 µM (inactive)
same,GI50,[3],42.7 µM (inactive)
same,GI50,[4],37.4 µM (inactive)
same,GI50,[5],26.9 µM (inactive)
same,GI50,[6],22.5 µM (inactive)
same,GI50,[7],31 µM (inactive)
same,GI50,[8],23.1 µM (inactive)
same,GI50,[9],39.3 µM (inactive)
same,GI50,[10],21.9 µM (inactive)
same,GI50,[11],19.3 µM (inactive)
same,GI50,[12],32.8 µM
same,GI50,[13],17.2 µM (inactive)
same,GI50,[14],> 100 µM (inactive)
same,GI50,[15],32.4 µM (inactive)
same,GI50,[16],23.3 µM (inactive)
same,GI50,[17],29 µM (inactive)
same,GI50,[18],31 µM (inactive)
same,GI50,[19],17.7 µM (inactive)
same,GI50,[20],40.7 µM (inactive)
same,GI50,[21],31.9 µM (inactive)
same,GI50,[22],25.5 µM (inactive)
same,GI50,[23],29.6 µM (inactive)
same,GI50,[24],35.1 µM (inactive)
same,GI50,[25],28.6 µM (inactive)
same,GI50,[26],22.2 µM (inactive)
same,GI50,[27],27.3 µM (inactive)
same,GI50,[28],31.8 µM (inactive)
same,GI50,[29],19.1 µM (inactive)
same,GI50,[30],89.5 µM (inactive)
same,GI50,[31],40.1 µM (inactive)
same,GI50,[32],> 100 µM (inactive)
same,GI50,[33],20.8 µM (inactive)
same,GI50,[34],44.5 µM (inactive)
same,GI50,[35],29.7 µM (inactive)
same,GI50,[36],32.7 µM (inactive)
same,GI50,[37],29.6 µM (inactive)
same,GI50,[38],34 µM (inactive)
same,GI50,[39],26.7 µM (inactive)
same,GI50,[40],23.6 µM (inactive)
same,GI50,[41],54.8 µM (inactive)
same,GI50,[42],28.6 µM (inactive)
same,GI50,[43],27.9 µM (inactive)
same,GI50,[44],30.3 µM (inactive)
same,GI50,[45],27.1 µM (inactive)
same,GI50,[46],20.8 µM (inactive)
same,GI50,[47],42 µM (inactive)
same,GI50,[48],24.3 µM (inactive)
same,GI50,[49],> 100 µM (inactive)
same,GI50,[50],17.1 µM (inactive)
same,GI50,[51],37.3 µM (inactive)
